Assay results published in article PMC5159881 (Nature Communications, 2016).
Like-named read-outs stand apart in the source and are kept apart here.

Assays:
AR1-651 = target: T1, AR1-651 (Homo sapiens, UniProt P10275); assay: MMTV-luc dual luciferase reporter assay, AR1-651-induced activity in 22RV1 cells; assay type: cell-based; conditions: for MMTV-luc Activity (%), AR1-651-induced: 22RV1, AR1-651 +, 12 h;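 as to all read-outs here: luminometric read-out of firefly luciferase signal normalized to Renilla luciferase signal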
T1 construct: FLAG; expressed in transfected cells; host or cells: 22RV1
T1 sequence (P10275 1-651): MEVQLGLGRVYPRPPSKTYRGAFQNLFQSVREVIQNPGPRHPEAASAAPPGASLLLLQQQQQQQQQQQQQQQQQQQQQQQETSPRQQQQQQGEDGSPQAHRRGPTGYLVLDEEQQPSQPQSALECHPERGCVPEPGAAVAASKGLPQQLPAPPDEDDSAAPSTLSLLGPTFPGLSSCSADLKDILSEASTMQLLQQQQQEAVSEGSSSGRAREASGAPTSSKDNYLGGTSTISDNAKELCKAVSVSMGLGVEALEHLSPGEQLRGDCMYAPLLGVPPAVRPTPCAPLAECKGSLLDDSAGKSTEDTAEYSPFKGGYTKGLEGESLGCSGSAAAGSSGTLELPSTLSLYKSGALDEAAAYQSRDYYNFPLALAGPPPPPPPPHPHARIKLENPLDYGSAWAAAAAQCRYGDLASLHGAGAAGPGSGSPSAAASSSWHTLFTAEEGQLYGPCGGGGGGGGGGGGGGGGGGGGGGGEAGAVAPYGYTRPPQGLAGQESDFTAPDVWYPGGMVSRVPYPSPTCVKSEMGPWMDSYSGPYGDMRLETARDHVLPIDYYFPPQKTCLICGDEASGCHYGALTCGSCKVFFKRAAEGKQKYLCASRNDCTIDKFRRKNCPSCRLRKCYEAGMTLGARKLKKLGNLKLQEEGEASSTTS
Procedure: (§1) Renilla and firefly activities were then determined by luminometry using the Dual-Luciferase Reporter Assay System (Promega) and the ratio calculated. Results were expressed as the ratio of firefly to Renilla luciferase activity.

AR-FL = AR-FL (Homo sapiens, UniProt P10275); assay: MMTV-luc dual luciferase reporter assay, DHT-induced AR activity in 22RV1 cells; assay type: cell-based; conditions: 22RV1, DHT +, compound 10 µM, 12 h, mean ± s.d., n=3
Procedure: as §1
After transient transfection of MMTV-luc and Renilla-luc in 22RV1, the MMTV-luc
activities were stimulated by androgen DHT. Then cells were treated with indicated
expressed as the ratio of luciferase activity. Values are presented as mean ± s.d., n =

[1] = compound 10 µM, mean ± s.d., n=3
[2] = 22Rv1, read-out: MMTV-luc Activity (%), AR1-651-induced, 22RV1, AR1-651 +, compound 1 µM, 12 h
[3] = 22Rv1, read-out: MMTV-luc Activity (%), AR1-651-induced, 22RV1, AR1-651 +, compound 10 µM, 12 h, mean ± s.d., n=3
[4] = 22Rv1, read-out: MMTV-luc Activity (%), AR1-651-induced

Chain of AR-FL (P10275 whole entry): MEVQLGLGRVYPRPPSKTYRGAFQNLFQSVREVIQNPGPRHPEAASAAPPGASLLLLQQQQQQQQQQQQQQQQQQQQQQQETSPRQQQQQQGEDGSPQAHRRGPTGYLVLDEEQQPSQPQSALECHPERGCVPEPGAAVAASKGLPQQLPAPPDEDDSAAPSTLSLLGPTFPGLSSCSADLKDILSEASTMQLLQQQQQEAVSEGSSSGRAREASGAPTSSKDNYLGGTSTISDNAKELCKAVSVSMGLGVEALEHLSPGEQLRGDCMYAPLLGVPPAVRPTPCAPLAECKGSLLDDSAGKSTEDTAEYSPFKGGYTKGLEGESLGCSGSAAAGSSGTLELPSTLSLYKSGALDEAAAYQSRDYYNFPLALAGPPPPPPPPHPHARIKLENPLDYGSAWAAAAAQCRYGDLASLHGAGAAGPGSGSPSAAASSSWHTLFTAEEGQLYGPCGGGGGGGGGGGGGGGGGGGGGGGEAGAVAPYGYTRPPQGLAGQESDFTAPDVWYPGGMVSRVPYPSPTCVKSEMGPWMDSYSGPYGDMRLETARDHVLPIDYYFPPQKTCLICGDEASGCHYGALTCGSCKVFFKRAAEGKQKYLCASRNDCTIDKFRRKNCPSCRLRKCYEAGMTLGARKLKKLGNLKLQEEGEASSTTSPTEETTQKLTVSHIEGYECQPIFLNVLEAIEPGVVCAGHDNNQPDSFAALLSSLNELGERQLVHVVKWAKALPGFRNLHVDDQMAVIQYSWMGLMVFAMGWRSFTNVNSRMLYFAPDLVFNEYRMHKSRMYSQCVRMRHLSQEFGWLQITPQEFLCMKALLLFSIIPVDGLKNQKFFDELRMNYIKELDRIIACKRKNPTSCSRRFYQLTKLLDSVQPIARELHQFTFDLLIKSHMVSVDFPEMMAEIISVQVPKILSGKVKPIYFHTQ

| Compound | MMTV-luc Activity (%), AR1-651-induced (AR1-651; [1]) [%] | activity at 10 µM (AR1-651; [3]) [%] | further results |
| --- | --- | --- | --- |
| O=C1CCC[C@@H]2[C@H]3CCC[N@+]4([O-])CCC[C@@H](CN12)[C@@H]34 [Ammothamnine] | 105.7 |  | MMTV-luc Activity (%), DHT-induced (AR-FL): 119.1±20.9% |
| C=C1CC[C@@H]2[C@](C)(CO)[C@H](O)CC[C@@]2(C)[C@@H]1C/C=C1/C(=O)OC[C@H]1O [Andrographolide] |  | 59.5 | activity at 1 µM (AR1-651; [2]): 70% |
| O=C1C=CC2(CCC23C=CC(=O)O3)O1 (centres unmarked) [Anemonin] |  | 112 |  |
| O=C(O)[C@H]1O[C@@H](Oc2cc3oc(-c4ccccc4)cc(=O)c3c(O)c2O)[C@H](O)[C@@H](O)[C@@H]1O [Baicalin] |  | 113 |  |
| C=C(C)[C@@H]1CC[C@]2(C(=O)O)CC[C@]3(C)[C@H](CC[C@@H]4[C@@]5(C)CC[C@H](O)C(C)(C)[C@@H]5CC[C@]43C)[C@@H]12 [Betulinic acid] |  | 65.2 |  |
| CC(C)(C)[C@]1(O)CC2OC(=O)CC23C(=O)OC2OC(=O)[C@H](O)C231 (some centres unmarked) [Bilobalide] |  |  | activity at 10 µM (AR1-651; [4]): 98.7 ± 1.1% |
| COc1cc(/C=C/C(=O)CC(=O)/C=C/c2ccc(O)c(OC)c2)ccc1O [Curcumin] |  | 178 |  |
| C=C1C[C@@]2(O)O[C@@]3(C[C@H]2C(C)C)[C@@H](C)CC[C@@H]13 [Curcumol] | 43.7 |  | MMTV-luc Activity (%), AR1-651-induced (AR1-651; compound 1 µM): 86.4±7.7%; MMTV-luc Activity (%), DHT-induced (AR-FL): 90.0±9.2% |
| O=c1c(-c2ccc(O)cc2)coc2cc(O)ccc12 [Daidzein] |  | 177 |  |
| O=C1c2c(O)cc(O)cc2O[C@H](c2cc(O)c(O)c(O)c2)[C@H]1O [Dihydromyricetin] |  | 89.8 ± 8 |  |
| C[C@@H]1CC[C@@]2(OC1)O[C@H]1C[C@H]3[C@@H]4CC=C5C[C@@H](O)CC[C@]5(C)[C@H]4CC[C@]3(C)[C@H]1[C@@H]2C [Diosgenin] |  | 148 |  |
| CC(C)(c1ccc(OCC(O)CO)cc1)c1ccc(OCC(O)CCl)cc1 (stereo not drawn) [EPI-001, reference compound] |  |  | MMTV-luc Activity (%), AR1-651-induced (AR1-651; compound 25 µM): 54.2% |
| CC(C)[C@@H](C)/C=C/[C@@H](C)[C@H]1CC[C@H]2C3=CC=C4C[C@@H](O)CC[C@]4(C)[C@H]3CC[C@]12C [Ergosterol] |  | 96.3 ± 6.1 |  |
| OCc1ccc(O[C@@H]2O[C@H](CO)[C@@H](O)[C@H](O)[C@H]2O)cc1 [Gastrodin] |  |  | activity at 10 µM (AR1-651; [4]): 70 ± 3.7% |
| O=c1c(-c2ccc(O)cc2)coc2cc(O)cc(O)c12 [Genistein] |  | 157 |  |
| CC(C)=CCC[C@](C)(O[C@@H]1O[C@H](CO)[C@@H](O)[C@H](O)[C@H]1O)[C@H]1CC[C@]2(C)[C@@H]1[C@H](O)C[C@@H]1[C@@]3(C)CC[C@H](O)C(C)(C)[C@@H]3[C@@H](O[C@@H]3O[C@H](CO)[C@@H](O)[C@H](O)[C@H]3O)C[C@]12C [Ginsenoside Rg1] |  | 77.2 |  |
| COc1ccc([C@@H]2CC(=O)c3c(O)cc(O[C@@H]4O[C@H](CO[C@@H]5O[C@@H](C)[C@H](O)[C@@H](O)[C@H]5O)[C@@H](O)[C@H](O)[C@H]4O)cc3O2)cc1O [Hesperidin] | 110.2±13 |  | MMTV-luc Activity (%), DHT-induced (AR-FL): 85.5±23.9% |
| O=c1c(O[C@@H]2O[C@H](CO)[C@@H](O)[C@H](O)[C@H]2O)c(-c2ccc(O)c(O)c2)oc2cc(O)cc(O)c12 [Isoquercitrin] |  | 95.5 |  |
| COc1cc(-c2oc3cc(O)cc(O)c3c(=O)c2O)ccc1O [Isorhamnetin] |  |  | activity at 10 µM (AR1-651; [4]): 139% |
| CCNC(=O)CC[C@H](N)C(=O)O [L-Theanine] |  | 61.9 |  |
| O=c1cc(-c2ccc(O)c(O)c2)oc2cc(O)cc(O)c12 [Luteolin] |  | 82.7 ± 4.5 |  |
| O[C@H]1[C@H]2c3cc4c(cc3CN3CCC(=C[C@@H]1O)[C@H]23)OCO4 [Lycorine] |  |  | activity at 10 µM (AR1-651; [4]): 66% |
| C=CCc1ccc(O)c(-c2cc(CC=C)ccc2O)c1 [Magnolol] |  |  | activity at 1 µM (AR1-651; [4]): 60.6%; activity at 10 µM (AR1-651; [4]): 59.3% |

| Compound | MMTV-luc Activity (%), AR1-651-induced (AR1-651; [1]) [%] | activity at 10 µM (AR1-651; [3]) [%] | further results |
| --- | --- | --- | --- |
| CC1(C)CC[C@]2(C(=O)O)CC[C@]3(C)C(=CC[C@@H]4[C@@]5(C)CC[C@H](O)C(C)(C)[C@@H]5CC[C@]43C)[C@@H]2C1 [Oleanic acid] | 153.4 |  | MMTV-luc Activity (%), DHT-induced (AR-FL): 122.4±7.5% |
| C[C@@]12C[C@@]3(O)O[C@@H](O1)[C@]1(COC(=O)c4ccccc4)[C@H]3C[C@@]12O[C@@H]1O[C@H](CO)[C@@H](O)[C@H](O)[C@H]1O [Paeoniflorin] |  | 88.5 |  |
| O=C(CCc1ccc(O)cc1)c1c(O)cc(O)cc1O[C@@H]1O[C@H](CO)[C@@H](O)[C@H](O)[C@H]1O [Phlorizin] |  | 52.9 | activity at 1 µM (AR1-651; [2]): 126% |
| CC1=CC(=O)c2c(O)cccc2C1=O [Plumbagin] |  | 28.8 ± 7.9 | activity at 1 µM (AR1-651; [2]): 128% |
| Cc1cc(O)c(C(=O)CCC(C)C)c(=O)o1 [Pogostone] | 157.2 |  | MMTV-luc Activity (%), DHT-induced (AR-FL): 92.3±13.3% |
| O=Cc1ccc(O)c(O)c1 [Protocatechuic aldehyde] | 62.5 |  | MMTV-luc Activity (%), DHT-induced (AR-FL): 83.1±0.1% |
| COc1cc(/C=C/c2ccc(O)cc2)cc(OC)c1 [Pterostilbene] |  | 90 ± 5.4 |  |
| O=c1c(-c2ccc(O)cc2)coc2c([C@@H]3O[C@H](CO)[C@@H](O)[C@H](O)[C@H]3O)c(O)ccc12 [Puerarin] |  | 80.1 ± 1.8 |  |
| O=C(/C=C/c1ccc(O)c(O)c1)O[C@H](Cc1ccc(O)c(O)c1)C(=O)O [Rosmarinic acid] |  | 115 |  |
| C[C@@H]1O[C@@H](OC[C@H]2O[C@@H](Oc3c(-c4ccc(O)c(O)c4)oc4cc(O)cc(O)c4c3=O)[C@H](O)[C@@H](O)[C@@H]2O)[C@H](O)[C@H](O)[C@H]1O [Rutin] |  | 91.4 |  |
| O=C([O-])C(O)Cc1ccc(O)c(O)c1.[Na+] (centres unmarked) [Sodium Danshensu] | 73.3 |  | MMTV-luc Activity (%), DHT-induced (AR-FL): 93.0±14.7% |
| C=C[C@H]1[C@H](O[C@@H]2O[C@H](CO)[C@@H](O)[C@H](O)[C@H]2O)OC=C2C(=O)OCC[C@]21O [Swertiamain] | 64.7±7.5 |  | MMTV-luc Activity (%), DHT-induced (AR-FL): 80.9±8.5% |
| Cc1coc2c1C(=O)C(=O)c1c-2ccc2c1CCCC2(C)C [Tanshinone IIA] |  | 105 |  |
| Cc1coc2c1C(=O)C(=O)c1c-2ccc2c(C)cccc12 [Tanshinone I] |  | 99.9 ± 4.1 |  |
| CN1CCc2cc3c(cc2[C@H]1[C@@H]1OC(=O)c2c1ccc1c2OCO1)OCO3 [d-Bicuculline] | 112.1 |  | MMTV-luc Activity (%), DHT-induced (AR-FL): 75.0±11.5% |
| CC1(C)[C@@H](O)CC[C@]2(C)[C@H]3C(=O)C=C4[C@@H]5C[C@@](C)(C(=O)O)CC[C@]5(C)CC[C@@]4(C)[C@]3(C)CC[C@@H]12 [glycyrrhetic acid] | 308.3 |  | MMTV-luc Activity (%), DHT-induced (AR-FL): 101.3±11.9% |
| O=C(/C=C/c1ccc(O)c2c1[C@H](C(=O)O[C@H](Cc1ccc(O)c(O)c1)C(=O)O)[C@@H](c1ccc(O)c(O)c1)O2)O[C@H](Cc1ccc(O)c(O)c1)C(=O)O [lithospermic acid B] | 96.3±4.2 |  | MMTV-luc Activity (%), DHT-induced (AR-FL): 115.9±27.9% |
| O=C(O)C1=C[C@@H](O)[C@@H](O)[C@H](O)C1 [shikimic acid] |  | 104 |  |
| Asiaticoside | 150.9 |  |  |
| D-Tanshinone I | 138.3 |  |  |
| Myricitrin | 102.1 |  |  |
| astragalosideⅠ | 87.0±5.2 |  | MMTV-luc Activity (%), DHT-induced (AR-FL): 117.8±5.2% |
